Data as given in patent US9012420B2, “Aptamer for chymase, and use thereof” (Ribomic Inc., priority 2009, dated 2015).
Oligonucleotides are written 5' to 3', each unit as a sugar letter and its base; * is a phosphorothioate linkage, no mark a phosphodiester; rarer units and linkages stand in square brackets, end groups in braces. Plain capitals give the bases only. r = 2'-OH (RNA); f = 2'-fluoro

T1: native chymase (purified from human skin mast cell) (Homo sapiens, UniProt P23946)
T1 construct: the native is chymase purified from human skin mast cell; purchased Calbiochem; host or cells: human skin mast cell
T1 sequence (P23946 22-247): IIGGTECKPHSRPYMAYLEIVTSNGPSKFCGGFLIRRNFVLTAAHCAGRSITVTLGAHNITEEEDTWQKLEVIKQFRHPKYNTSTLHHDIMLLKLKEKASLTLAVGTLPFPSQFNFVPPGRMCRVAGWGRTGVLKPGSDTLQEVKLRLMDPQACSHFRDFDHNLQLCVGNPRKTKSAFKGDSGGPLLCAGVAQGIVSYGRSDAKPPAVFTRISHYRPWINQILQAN

T2: recombinant chymase (expressed by yeast) (Homo sapiens, UniProt P23946)
T2 construct: purchased SIGMA; host or cells: yeast
T2 sequence (P23946 22-247): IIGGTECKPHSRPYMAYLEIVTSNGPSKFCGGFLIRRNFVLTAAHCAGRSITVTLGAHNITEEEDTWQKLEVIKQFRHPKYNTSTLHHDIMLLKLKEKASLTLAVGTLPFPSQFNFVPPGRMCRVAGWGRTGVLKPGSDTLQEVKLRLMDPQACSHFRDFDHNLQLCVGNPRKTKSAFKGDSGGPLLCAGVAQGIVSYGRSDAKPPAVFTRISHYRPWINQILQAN


What was measured:
[1] = target: T1, native chymase (purified from human skin mast cell); assay: Chymase inhibitory activity using angiotensin I as substrate, native chymase; format: biochemical; conditions: final 50 μM, chymase 0.2-0.5 nM, 37° C. 90 min, one measurement
Description: (§1) A second method of evaluation employs a native substrate. A useful native substrate for chymase is angiotensin I. Here, His-Leu, a peptide fragment released upon degradation of angiotensin I, is fluorescently derivatized, and the fluorescence intensity therefrom is quantified.
(§2) In the assay, an enzyme reaction is carried out in 50 μL of solution C. First, 0.3-0.75 ng of chymase (recombinant, manufactured by SIGMA; or native, manufactured by Calbiochem) is diluted in solution C to obtain 5 μL chymase solution. Each nucleic acid is prepared in solution C to obtain 25 μL solutions. 5 μL of each chymase dilution and 25 μL of each nucleic acid solution are mixed, and then the mixture is incubated at 37° C. for 5 minutes. […] The angiotensin I solution is added to the mixture of chymase and nucleic acid, and the enzyme reaction is initiated. After the reaction was allowed to proceed at 37° C. for 90 minutes, 25 μL of ice-cooled 30% trichloroacetic acid solution is added to terminate the reaction. The entire mixture is centrifuged at 4° C., 14000 rpm for 10 minutes, and 30 μL of the resulting supernatant is used for the subsequent reaction for fluorescent derivatization.
(§3) After 30 μL of the supernatant is added to a 96-well plate (Black, manufactured by Costar), 15 μL of 2% o-phthalaldehyde (manufactured by SIGMA) solution in methanol and 170 μL of 0.3M NaOH solution are mixed in each well, and the plate is allowed to stand at room temperature for 10 minutes. Subsequently, 25 μL of 3M HCl solution is added to terminate the reaction. The plate is set to the microplate reader SpectraMax190 (manufactured by Molecular Devices Corporation), and the fluorescence intensity is determined at an excitation wavelength of 355 nm and a fluorescence wavelength of 460 nm.
(§4) For control, samples are treated and analyzed in the same manner in two cases: use of SEQ ID NO: 58 (negative control) and use of chymostatin, a known chymotrypsin-like serine protease inhibitor (positive control). In both cases, fluorescence intensity obtained at 0 minute reaction time serves as a blank determination. Taking the fluorescence intensity detected with the addition of an equal volume of solution C, in place of each nucleic acid, in the chymase enzyme reaction as 100%, the inhibitory rate for each test substance is calculated, and the inhibitor concentration required to cause a 50% inhibition of the enzyme activity (IC50) is determined.
(§5) For further assessment of the inhibitory activity of the nucleic acid of the present invention, the enzyme activity of chymase was measured using angiotensin I, which is a native substrate for chymase, according to the following method. Angiotensin I is converted by chymase to angiotensin II, during which a peptide fragment His-Leu is released. Since the peptide His-Leu is fluorescently derivatized by o-phthalaldehyde, its fluorescence intensity can be quantitatively measured.
(§6) The total volume of solution for an enzyme reaction in the assay was set to 50 μL, and the reaction was performed in solution C buffer. First, 0.3-0.75 ng of chymase (recombinant, (manufactured by SIGMA) or native (manufactured by Calbiochem)) was diluted with solution C to give 5 μL thereof. Here, the recombinant is chymase expressed by yeast, and the native is chymase purified from human skin mast cell. The nucleic acid was serially diluted with solution C at a concentration of 0.0027-2 μM to give 25 μL thereof. The chymase solution (5 μL) and the nucleic acid solution (25 μL) were mixed, and the mixture was incubated at 37° C. for 5 min. On the other hand, […] angiotensin I (manufactured by PEPTIDE INSTITUTE, INC.) was prepared in solution C to give […] thereof, which was incubated at 37° C. for 5 min. The angiotensin I solution was added to a mixture of chymase and nucleic acid to start an enzyme reaction. The final chymase concentration of the reaction solution was 0.2-0.5 nM, and the final substrate concentration was 50 μM. […]

[2] = target: T2, recombinant chymase (expressed by yeast); assay: Chymase inhibitory activity using angiotensin I as substrate, recombinant chymase; format: biochemical; conditions: final 50 μM, chymase 0.2-0.5 nM, 37° C. 90 min, one measurement
Description: as §1, §2, §3, §4, §5, §6

Molecule | IC50 [1] | IC50 [2]
56 (GGGUUAGAUAGAGUUAAAAACCC; 2'-fluoro at CU, RNA at AG, backbone not given here) [compound 56] | 508 nM | 235 nM
55 (CUAUGGUUAGAUAGAGUUAAAAACCAUAG; 2'-fluoro at CU, RNA at AG, backbone not given here) [compound 55] | 606 nM | 354 nM
54 (UAACUAUGGUUAGAUAGAGUUAAAAACCAUAGAAGA; 2'-fluoro at CU, RNA at AG, backbone not given here) [compound 54] | 614 nM | 397 nM
71 (GGGUUAGAUAGAGTUAAAAACCC; chemistry not given here) [compound 71] | 341 nM | 161 nM
65 (rGrGfCrArGrAfUrArGrArGfUfUrArArArGfCfC) [compound 65] | 878 nM | 274 nM
72 (GGGTTAGAUAGAGTUAAAAACCC; chemistry not given here) [compound 72] | 120 nM | 65 nM
53 (GGGUAACUAUGGUUAGAUAGAGUUAAAAACCAUAGAAGACCC; 2'-fluoro at CU, RNA at AG, backbone not given here) [compound 53] | 764 nM | 446 nM
70 (GGGTTAGAUAGAGUUAAAAACCC; chemistry not given here) [compound 70] | 478 nM | 239 nM
CC(C)C[C@H](NC(=O)[C@@H](NC(=O)N[C@@H](Cc1ccccc1)C(=O)O)[C@@H]1CCN=C(N)N1)C(=O)N[C@H](C=O)Cc1ccccc1 [chymostatin, reference compound] | 350 to 500 nM | 450 to 600 nM
GGGU(F)U(F)GAAGAU(F)AU(F)U(F)AAAGAAC(F)C(F)C(F) (GGGUUGAAGAUAUUAAAGAACCC; 2'-fluoro at CU, RNA at AG, backbone not given here) [SEQ ID NO: 58] | > 1000 nM | > 1000 nM
4 (nucleic acid, aptamer) rGrGrGrAfCrGrGfUrArGrGrArAfUfUfCrGfUfCfCrAfUfUfCfUrAfCrArGrAfUrArGrArGrAfUrArArArGfUrArGrArAfUfUfUrArAfCrArArArAfCrAfUrArGrArArGrArGfCrGrGfCfCrGfC | 31 nM | 3 nM
13 (nucleic acid, aptamer) rGrGrGrAfCrGrGfUrArGrGrArAfUfUfCfCrGfCrArAfCfCrAfUfCfCfCrGfUrArAfCfUrAfUrGrGfUfUrArGrAfUrArGrArGfUfUrArArArArAfCfCrAfUrArGrArArGrArGfCrGrGfCfCrGfC | 74 nM | 41 nM
14 (nucleic acid, aptamer) rGrGrGrAfCrGrGfUrArGrGrArAfUfUfCfUfCrGfUfUfCfCfUrGrAfCrArGfCrAfUfUfUrGrArGrAfUrArGrAfUfUfUrArArAfCrArArAfCrGfCrAfCrAfUrArGrArArGrArGfCrGrGfCfCrGfC | 63 nM | 22 nM
